Source: patent US4450166A, “N-(4,5-Dihydro-thiazol-2-yl)-3-quinoline-carboxamides having anxiolytic activity” (Roussel Uclaf, priority 1981, dated 1984)
Structures can show the parent of a compound that is named as a salt. Where two headings read alike, the source gives them in different places.

Assays:
[1] = derivative of French Pat. No. 2,340,735; cited from earlier work
[2] = derivative of French Pat. No. 2,340,735; cited from earlier work; remark: listed apart in the source
[3] = Anxiolytic activity (electric shock test, Apelab apparatus, Boissier et al); format: in vivo, mice; details: oral; for ED (maximum): Mus musculus, 0.5 h, 30 minutes before the test, groups of 10 mice, shocks over one minute, read-out: oral dose at which the number of delivered shocks increased to the maximum; for anxiolytic activity (in words): mice
Protocol: The Apelab apparatus and protocol used by Boissier et al [European J. Pharmacol., Vol. 4 (1968), p. 145] were used to determine the anxiolytic activity and 4 plates were connected to a stimulator (U. Sachs, Roucaire) which delivered electric shocks of 120 volts for 0.5 seconds. The test was effected on groups of 10 mice who had orally received the test compound 30 minutes before the test. Each animal was individually placed on the apparatus and after 15 seconds of free exploration, it was subjected to an electric shock each time as it passed from plate to another, a minimum of 3 seconds being observed between 2 shocks. The number of delivered shocks was determined over one minute and the obtained results were compared to those observed on control animals by the Dunnett test.

[4] = molecular target: receptors for benzodiazepines; assay: Affinity for receptors for benzodiazepines (inhibition of specific bonding of ^3 H diazepam); format: binding; details: ^3 H diazepam 10^-9 M, rat cortex, pH of 7.4
Protocol: The test was inspired by Mohler et al. [Science, No. 198 (1977), p. 849-851] and one part of the cortex removed from the brains of males rats weighing an average of […] per 20 parts by volume of 0.32 M of sucrose solution was homogenized. After centrifugation at 1000 g of the homogenized mixture at 0° C. for 10 minutes, the surnagent was centrifuged at 30,000 g at 4° C. for 20 minutes and the culot was suspended in 20 volumes of buffered 50 mM. Tris HCl with a pH of 7.4. The suspension was centrifuged at 30,000 g for 20 minutes at 4° C. and the new culot was suspended in 50 ml of buffered Krebs Tris HCl with a pH of 7.4. Following incubation at 0° C. for 30 minutes, 2 ml of the suspension in the presence of ^3 H diazepam at a concentration of 10^-9 M alone and with increasing concentrations of the test product to determine non-specific fixation with non-radioactive diazepam at a concentration of 10^-6 M.
The incubated suspension were filtered through a Whatman GF/C filter and the filters were washed twice at 0° C. with 5 ml of buffered krebs. Tris HCl with a pH of 7.4. The radioactivity of the filter was measured by liquid scintillation and the activity of the product was expressed in I.C.50 or the concentration which inhibits by 50% the specific bonding of ^3 H diazepam determined graphically.

Acute toxicity = format: in vivo; details: oral, mice
[5] = test system: plasmatic corticosterone level; assay: Action against stress caused by noise by plasmatic corticosterone level; format: in vivo; details: Rattus norvegicus; oral; groups of 5 rats fasted 24 hours; noise stress one hour later; read-out: DE50 (oral dose which reduced by 50% the level of corticosterone)
Protocol: The test was effected on groups of 5 rats fasted for 24 hours receiving orally the test compound between 8 and 9 in the morning. One hour later, stress was applied to the animals by placing them in a cage with a noisily operated radio adjacent thereto. 30 minutes later, they received an intraperitonal prick and 10 minutes later, the animals were anesthesized with halothane. 3 ml blood samples were taken after decapitation and the seric levels of corticosterone were determined by a radio-immunological method. Counts were taken of the importance in the male rat of seric concentrations of corticosterone to determine directly without previous extraction of the hormone with 0.1 ml of the sample diluted to 1 to 100. To the test sample were added in hemolysis tubes (12×65 mm) 0.1 ml of an aqueous solution of ^3 H-- corticosterone (5000 spm) and 0.5 ml of buffered phosphate solution (0.02 M; pH of 6.9) containing 0.02% of gelatine and 0.02% of sodium nitride containing a suspension of anticorticosterone antiserum (dilution 1/300,000), sheep antiserum anti γ-globuline of rabbit (dilution of 1/50) and normal serum of rabbit treated with Dextran carbon (dilution 1/500).
The volume was adjusted to 1 ml and the mixture was incubated overnight at 4° C. The mixture was centrifuged at 3000 t/mn for 20 minutes and the surnageant was discarded. The radioactivity contained in the precipitate was measured by a counter after addition of 2 ml of scintillation liquid containing 5% of Soluene 350. The concentration of corticosterone was determined with a standard curve (0-4000 pg) established under the treatment conditions of the samples. The individual seric level of corticosterone expressed in μg/100 ml was determined as the average of 3 tests and the results were compared by the Student test to those obtained in control animals not subjected to stress. The results expressed as DE50 on the oral dose which reduced by 50% the level of corticosterone in the treated animals is reported in Table III.

Row | SMILES | analgesic activity (in words) [1] | anxiolytic activity (in words) [2] | ED (maximum) [3] [mg/kg] | anxiolytic activity (in words) [3] | IC50 [4] [nM] | DL0 (maximum dose which did not cause any mortality after 8 days) (Acute toxicity) [mg/kg] | ED50 [5] [mg/kg]
1 | O=C(NC1=NCCS1)c1cnc2c(C(F)(F)F)cccc2c1O | has analgesic activity | devoid of anxiolytic activity |  |  |  |  | 
2 | Cl.O=C(NC1=NCCS1)c1cnc2ccccc2c1O [Example 1, N-(4,5-dihydro-thiazol-2-yl)-4-hydroxy-3-quinoline-carboxamide hydrochloride] |  |  | 10 | good anxoilytic activity | 0.5 | > 400 | 10
3 | CCc1ccc2ncc(C(=O)NC3=NCCS3)c(O)c2c1.Cl [Example 2, N-(4,5-dihydro-thiazol-2-yl)-6-ethyl-4-hydroxy-3-quinoline-carboxamide hydrochloride] |  |  | 20 | good anxoilytic activity | 0.3 | > 400 | 15
4 | Cc1ccc2ncc(C(=O)NC3=NCCS3)c(O)c2c1 [Example 3, N-(4,5-dihydro-thiazol-2-yl)-6-methyl-4-hydroxy-3-quinoline-carboxamide hydrochloride] |  |  |  |  | 1.5 |  | 
5 | CC(C)c1ccc2ncc(C(=O)NC3=NCCS3)c(O)c2c1 [Example 4, N-(4,5-dihydro-thiazol-2-yl)-6-isopropyl-4-hydroxy-3-quinoline-carboxamidehydrochloride] |  |  | 20 | good anxoilytic activity | 2.2 | > 1000 | 50
6 | O=C(NC1=NCCS1)c1cnc2cc(Cl)ccc2c1O [Example 5, N-(4,5-dihydro-thiazol-2-yl)-7-chloro-4-hydroxy-3-quinoline-carboxamide hydrochloride] |  |  |  |  | 0.9 | > 1000 | 
7 | O=C(NC1=NCCS1)c1cnc2ccc(Cl)cc2c1O [Example 6, N-(4,5-dihydro-thiazol-2-yl)-6-chloro-4-hydroxy-3-quinoline-carboxamide hydrochloride] |  |  | 50 | good anxoilytic activity | 1 | > 400 | 50
8 | O=C(NC1=NCCS1)c1cnc2ccc(F)cc2c1O [Example 7, N-(4,5-dihydro-thiazol-2-yl)-6-fluoro-4-hydroxy-3-quinoline-carboxamide hydrochloride] |  |  |  |  | 1.3 |  | 
9 | COc1ccc2c(O)c(C(=O)NC3=NCCS3)cnc2c1 [Example 8, N-(4,5-dihydro-thiazol-2-yl)-7-methoxy-4-hydroxy-3-quinoline-carboxamide hydrochloride] |  |  | 20 | good anxoilytic activity | 1.2 | > 400 | 
10 | Cc1nc2ccccc2c(O)c1C(=O)NC1=NCCS1 [Example 9, N-(4,5-dihydro-thiazol-2-yl)-2-methyl-4-hydroxy-3-quinoline-carboxamide hydrochloride] |  |  | 10 | good anxoilytic activity | 2.6 | > 1000 | 10
